Values quoted from earlier work, collected in patent US20230165822A1, “URINARY ALKALIZING MEDICINAL AND/OR PHARMACEUTICAL COMPOSITION FOR THE ORAL TREATMENT OF INTERSTITIAL CYSTITIS / BLADDER PAIN SYNDROME (IC/BPS) AND FORMULATION THEREOF” (priority 2020, published 2023).

Conditions: in vivo

For `CC(=O)/N=c1/sc(S(N)(=O)=O)nn1C` [Methazolamide], the “share reaching the bladder” value is listed as “only a fraction”.
